Tested on: MV-4-11 cells
Test: Gene expression microarray analysis (Affymetrix PrimeView) and GSEA
Format: cell-based, human
Design: RFU PODN (11730768_x_at) / Fold change /veh PODN (11730768_x_at) / RFU LINC00158 (11744669_a_at) / Fold change /veh LINC00158 (11744669_a_at) / RFU DUSP10 (11751237_a_at) / Fold change /veh DUSP10 (11751237_a_at) / RFU ID3 (11757404_x_at) / Fold change /veh ID3 (11757404_x_at) / RFU PLEKHG5 (11737974_s_at) / Fold change /veh PLEKHG5 (11737974_s_at) / RFU LRRC4B (11730491_at) / Fold change /veh LRRC4B (11730491_at) / RFU GIMAP4 (11747438_a_at) / Fold change /veh GIMAP4 (11747438_a_at) / RFU KRT8 (11758183_x_at) / Fold change /veh KRT8 (11758183_x_at) / RFU CNN1 (11734310_a_at) / Fold change /veh CNN1 (11734310_a_at) / RFU VPS37D (11726825_at) / Fold change /veh VPS37D (11726825_at) / RFU C10orf10 (11716522_x_at) / Fold change /veh C10orf10 (11716522_x_at) / RFU KIR2DL2 /// KIR2DL4 /// KIR2DL5A /// KIR2DL5B /// KIR2DS1 /// KIR2DS2 /// KIR2DS3 /// KIR2DS4 /// KIR3DL3 /// KIR3DL3 /// KIR3DS1 (11738374_at) / Fold change /veh KIR2DL2 /// KIR2DL4 /// KIR2DL5A /// KIR2DL5B /// KIR2DS1 /// KIR2DS2 /// KIR2DS3 /// KIR2DS4 /// KIR3DL3 /// KIR3DL3 /// KIR3DS1 (11738374_at) / RFU C1QL1 (11718748_at) / Fold change /veh C1QL1 (11718748_at) / RFU TMPRSS4 (11747572_a_at) / Fold change /veh TMPRSS4 (11747572_a_at) / RFU HAMP (11756126_x_at) / Fold change /veh HAMP (11756126_x_at) / RFU RNFT2 (11725882_a_at) / Fold change /veh RNFT2 (11725882_a_at) / RFU NR4A2 (11747474_a_at) / Fold change /veh NR4A2 (11747474_a_at) / RFU ABCC12 (11746883_a_at) / Fold change /veh ABCC12 (11746883_a_at) / RFU TMEM136 (11760407_x_at) / Fold change /veh TMEM136 (11760407_x_at) / RFU CLDN22 /// WWC2 (11732394_at) / Fold change /veh CLDN22 /// WWC2 (11732394_at) / RFU HLA-DPB1 (11760878_x_at) / Fold change /veh HLA-DPB1 (11760878_x_at) / RFU SPINT1 (11716480_a_at) / Fold change /veh SPINT1 (11716480_a_at) / RFU GAP43 (11754022_s_at) / Fold change /veh GAP43 (11754022_s_at) / RFU A4GNT (11735810_at) / Fold change /veh A4GNT (11735810_at) / RFU PRB3 (11715151_x_at) / Fold change /veh PRB3 (11715151_x_at) / RFU TUBB4B (11761932_at) / Fold change /veh TUBB4B (11761932_at) / RFU CAPN14 (11732068_a_at) / Fold change /veh CAPN14 (11732068_a_at) / RFU TMCC2 (11721928_a_at) / Fold change /veh TMCC2 (11721928_a_at) / RFU IRGQ (11745062_a_at) / Fold change /veh IRGQ (11745062_a_at) / RFU FAM174B (11720279_a_at) / Fold change /veh FAM174B (11720279_a_at) / RFU TMPRSS4 (11748680_a_at) / Fold change /veh TMPRSS4 (11748680_a_at) / RFU FAM212B (11763350_a_at) / Fold change /veh FAM212B (11763350_a_at) / RFU PLEKHG5 (11743358_a_at) / Fold change /veh PLEKHG5 (11743358_a_at) / RFU ZSCAN30 (11745921_a_at) / Fold change /veh ZSCAN30 (11745921_a_at) / RFU CMKLR1 (11741424_a_at) / Fold change /veh CMKLR1 (11741424_a_at) / RFU LOC101060620 /// MAPK8IP1 (11723275_at) / Fold change /veh LOC101060620 /// MAPK8IP1 (11723275_at) / RFU SPTSSB (11747773_x_at) / Fold change /veh SPTSSB (11747773_x_at) / RFU PRSS12 (11739890_at) / Fold change /veh PRSS12 (11739890_at) / RFU BIN1 (11741810_x_at) / Fold change /veh BIN1 (11741810_x_at) / RFU WNT11 (11732464_a_at) / Fold change /veh WNT11 (11732464_a_at) / RFU C10orf10 (11716521_a_at) / Fold change /veh C10orf10 (11716521_a_at) / RFU C5orf56 (11738089_at) / Fold change /veh C5orf56 (11738089_at) / RFU CYB561 (11721691_x_at) / Fold change /veh CYB561 (11721691_x_at) / RFU ANKRD19P (11752326_a_at) / Fold change /veh ANKRD19P (11752326_a_at) / RFU OR2T12 /// OR2T33 /// OR2T8 (11738714_s_at) / Fold change /veh OR2T12 /// OR2T33 /// OR2T8 (11738714_s_at) / RFU VCAN (11748164_a_at) / Fold change /veh VCAN (11748164_a_at) / RFU JSRP1 (11732532_at) / Fold change /veh JSRP1 (11732532_at) / RFU KRTAP10-11 (11738290_x_at) / Fold change /veh KRTAP10-11 (11738290_x_at) / RFU MYO3A (11730013_a_at) / Fold change /veh MYO3A (11730013_a_at) / RFU EBF3 (11725865_a_at) / Fold change /veh EBF3 (11725865_a_at) / RFU CAMK2N1 (11719241_x_at) / Fold change /veh CAMK2N1 (11719241_x_at) / RFU C5orf56 (11738088_a_at) / Fold change /veh C5orf56 (11738088_a_at) / RFU OLFML3 (11715873_a_at) / Fold change /veh OLFML3 (11715873_a_at) / RFU LOC100653217 /// NTM (11731650_a_at) / Fold change /veh LOC100653217 /// NTM (11731650_a_at) / RFU MAPK11 (11762145_a_at) / Fold change /veh MAPK11 (11762145_a_at) / RFU FIZ1 (11724087_x_at) / Fold change /veh FIZ1 (11724087_x_at) / RFU OASL (11726364_x_at) / Fold change /veh OASL (11726364_x_at) / RFU SOX15 (11748057_x_at) / Fold change /veh SOX15 (11748057_x_at) / RFU CD79A (11719716_a_at) / Fold change /veh CD79A (11719716_a_at) / RFU HIST1H1D (11736915_at) / Fold change /veh HIST1H1D (11736915_at) / RFU CASKIN2 (11723855_a_at) / Fold change /veh CASKIN2 (11723855_a_at) / RFU LOC730098 (11760151_x_at) / Fold change /veh LOC730098 (11760151_x_at) / RFU OR4N2 (11742367_at) / Fold change /veh OR4N2 (11742367_at) / RFU PRRT2 (11749266_a_at) / Fold change /veh PRRT2 (11749266_a_at) / RFU SNX32 (11753110_a_at) / Fold change /veh SNX32 (11753110_a_at) / RFU CDHR5 (11726645_a_at) / Fold change /veh CDHR5 (11726645_a_at) / RFU RCAN1 (11760418_a_at) / Fold change /veh RCAN1 (11760418_a_at) / RFU FAM167A (11723789_a_at) / Fold change /veh FAM167A (11723789_a_at) / RFU FAM26E (11764081_at) / Fold change /veh FAM26E (11764081_at) / RFU ISYNA1 (11749810_s_at) / Fold change /veh ISYNA1 (11749810_s_at) / RFU ACY1 (11761880_at) / Fold change /veh ACY1 (11761880_at) / RFU 11764098_at / Fold change /veh 11764098_at / RFU SAMD14 (11745864_x_at) / Fold change /veh SAMD14 (11745864_x_at) / RFU NPB (11741838_a_at) / Fold change /veh NPB (11741838_a_at) / RFU TMPRSS6 (11731388_a_at) / Fold change /veh TMPRSS6 (11731388_a_at) / RFU KRTAP10-2 (11738614_at) / Fold change /veh KRTAP10-2 (11738614_at) / RFU ARHGAP8 /// PRR5-ARHGAP8 (11727945_x_at) / Fold change /veh ARHGAP8 /// PRR5-ARHGAP8 (11727945_x_at) / RFU KRTAP5-7 /// NADSYN1 (11734609_at) / Fold change /veh KRTAP5-7 /// NADSYN1 (11734609_at) / RFU RASL12 (11751679_a_at) / Fold change /veh RASL12 (11751679_a_at) / RFU CDKN2B (11736163_a_at) / Fold change /veh CDKN2B (11736163_a_at) / RFU PRF1 (11729649_at) / Fold change /veh PRF1 (11729649_at) / RFU, ZNF638 /// ZNF638-IT1 / Fold change vs veh, ZNF638 /// ZNF638-IT1 / RFU, PANK3 / Fold change vs veh, PANK3 / RFU, SH3YL1 / Fold change vs veh, SH3YL1 / RFU, ZEB2 / Fold change vs veh, ZEB2 / RFU, NRIP1 / Fold change vs veh, NRIP1 / RFU, PTTG1IP / Fold change vs veh, PTTG1IP / RFU, CAPN2 / Fold change vs veh, CAPN2 / RFU, MED14 / Fold change vs veh, MED14 / RFU, SNORA58 / Fold change vs veh, SNORA58 / RFU, C1orf63 / Fold change vs veh, C1orf63 / RFU, LRRFIP1 / Fold change vs veh, LRRFIP1 / RFU, NDUFAF7 / Fold change vs veh, NDUFAF7 / RFU, SLC12A2 / Fold change vs veh, SLC12A2 / RFU, IBTK / Fold change vs veh, IBTK / RFU, ESF1 / Fold change vs veh, ESF1 / Fold change vs veh, TMEM50B / RFU, TAOK1 / Fold change vs veh, TAOK1 / RFU, ACBD3 / Fold change vs veh, ACBD3 / RFU, TMA16 / Fold change vs veh, TMA16 / RFU, RWDD3 / Fold change vs veh, RWDD3 / RFU, BCAT1 / Fold change vs veh, BCAT1 / RFU, EDEM3 / Fold change vs veh, EDEM3 / RFU, TMEM33 / Fold change vs veh, TMEM33 / RFU, WDR75 / Fold change vs veh, WDR75 / RFU, AHCTF1 / Fold change vs veh, AHCTF1 / RFU, TFRC / Fold change vs veh, TFRC / RFU, ZDHHC17 / Fold change vs veh, ZDHHC17 / RFU, NOM1 / Fold change vs veh, NOM1 / RFU, ARL8B / Fold change vs veh, ARL8B / RFU, ZBTB11 / Fold change vs veh, ZBTB11 / RFU, TAMM41 / Fold change vs veh, TAMM41 / RFU, KIAA1704 /// LOC100996395 / Fold change vs veh, KIAA1704 /// LOC100996395 / RFU, ING1 / Fold change vs veh, ING1 / RFU, TRMT61B / Fold change vs veh, TRMT61B / RFU, FUBP3 / Fold change vs veh, FUBP3 / RFU, TP53 / Fold change vs veh, TP53 / RFU, TNKS2 / Fold change vs veh, TNKS2 / RFU, ZFP14 / Fold change vs veh, ZFP14 / RFU, ACTR2 / Fold change vs veh, ACTR2 / RFU, PPP3R1 / Fold change vs veh, PPP3R1 / RFU, PIK3R1 / Fold change vs veh, PIK3R1 / RFU, HNRNPA1 / Fold change vs veh, HNRNPA1 / RFU, RNF170 / Fold change vs veh, RNF170 / RFU, ZNF28 / Fold change vs veh, ZNF28 / RFU, RNGTT / Fold change vs veh, RNGTT / RFU, OGT / Fold change vs veh, OGT / RFU, BRD1 / Fold change vs veh, BRD1 / RFU, MARS / Fold change vs veh, MARS / RFU, ZNF655 / Fold change vs veh, ZNF655 / RFU, FAHD1 / Fold change vs veh, FAHD1 / RFU, BDP1 / Fold change vs veh, BDP1 / RFU, LRRCC1 / Fold change vs veh, LRRCC1 / RFU, ARID1A / Fold change vs veh, ARID1A / RFU, ZNF146 / Fold change vs veh, ZNF146 / RFU, ZNF330 / Fold change vs veh, ZNF330 / RFU, GPN3 / Fold change vs veh, GPN3 / RFU, C9orf123 / Fold change vs veh, C9orf123 / RFU, N4BP2L2 / Fold change vs veh, N4BP2L2 / RFU, ARFIP1 / Fold change vs veh, ARFIP1 / RFU, FAM179B / Fold change vs veh, FAM179B / RFU, BCL10 / Fold change vs veh, BCL10 / RFU, UHRF1BP1L / Fold change vs veh, UHRF1BP1L / RFU, BET1 / Fold change vs veh, BET1 / RFU, CNOT2 / Fold change vs veh, CNOT2 / RFU, ZNF268 / Fold change vs veh, ZNF268 / Fold change vs veh, ZNF507 / RFU, DGCR2 / Fold change vs veh, DGCR2 / RFU, WDSUB1 / Fold change vs veh, WDSUB1 / Fold change vs veh, HSP90B1 /// MIR3652 / RFU, ADSS / Fold change vs veh, ADSS / RFU, GK / Fold change vs veh, GK / RFU, ZNF148 / Fold change vs veh, ZNF148 / RFU, TAF9 / Fold change vs veh, TAF9 / RFU, SLC1A5 / Fold change vs veh, SLC1A5 / RFU, SLMO2 / Fold change vs veh, SLMO2 / RFU, ABCC4 / Fold change vs veh, ABCC4 / RFU, LOC101060439 /// RAP1B / Fold change vs veh, LOC101060439 /// RAP1B / RFU, RFX7 / Fold change vs veh, RFX7 / RFU, GTPBP10 / Fold change vs veh, GTPBP10 / RFU, CNEP1R1 / Fold change vs veh, CNEP1R1 / RFU, BIVM-ERCC5 /// ERCC5 / Fold change vs veh, BIVM-ERCC5 /// ERCC5 / RFU, ILF3 / Fold change vs veh, ILF3 / RFU 11762660_at / Fold change /veh 11762660_at / RFU VCAN (11757783_s_at) / Fold change /veh VCAN (11757783_s_at) / RFU DDX43 (11728927_at) / Fold change /veh DDX43 (11728927_at) / RFU KRT8 (11758188_x_at) / Fold change /veh KRT8 (11758188_x_at) / RFU NKD1 (11759106_at) / Fold change /veh NKD1 (11759106_at) / RFU SRD5A1 (11742802_a_at) / Fold change /veh SRD5A1 (11742802_a_at) / RFU TPSAB1 /// TPSB2 (11721975_s_at) / Fold change /veh TPSAB1 /// TPSB2 (11721975_s_at) / RFU GSTM3 (11746129_a_at) / Fold change /veh GSTM3 (11746129_a_at) / RFU IL23R (11737362_x_at) / Fold change /veh IL23R (11737362_x_at) / RFU TMEM51 (11727254_a_at) / Fold change /veh TMEM51 (11727254_a_at) / RFU PIWIL2 (11732686_x_at) / Fold change /veh PIWIL2 (11732686_x_at) / RFU ORM1 (11744905_x_at) / Fold change /veh ORM1 (11744905_x_at) / RFU CCDC152 (11743942_at) / Fold change /veh CCDC152 (11743942_at) / RFU ECM1 (11717891_a_at) / Fold change /veh ECM1 (11717891_a_at) / RFU IL23R (11748794_a_at) / Fold change /veh IL23R (11748794_a_at) / RFU TNFAIP8L3 (11732012_x_at) / Fold change /veh TNFAIP8L3 (11732012_x_at) / RFU MBOAT4 (11741988_at) / Fold change /veh MBOAT4 (11741988_at) / RFU 11764193_at / Fold change /veh 11764193_at / RFU TMEM53 (11763286_at) / Fold change /veh TMEM53 (11763286_at) / RFU MAGEB2 (11727129_at) / Fold change /veh MAGEB2 (11727129_at) / RFU TMEM200A (11744735_a_at) / Fold change /veh TMEM200A (11744735_a_at) / RFU CCDC152 (11751479_a_at) / Fold change /veh CCDC152 (11751479_a_at) / RFU FAM211A (11726209_a_at) / Fold change /veh FAM211A (11726209_a_at) / RFU RGS16 (11746705_a_at) / Fold change /veh RGS16 (11746705_a_at) / RFU VCAN (11755009_s_at) / Fold change /veh VCAN (11755009_s_at) / RFU RHOB (11743442_s_at) / Fold change /veh RHOB (11743442_s_at) / RFU RGS16 (11720943_a_at) / Fold change /veh RGS16 (11720943_a_at) / RFU RGS16 (11720944_at) / Fold change /veh RGS16 (11720944_at) / RFU, VPS4B / Fold change vs veh, VPS4B / RFU, CREB1 / Fold change vs veh, CREB1 / RFU, DNAJC13 / Fold change vs veh, DNAJC13 / RFU, GNAQ / Fold change vs veh, GNAQ / RFU, CDK5R1 / Fold change vs veh, CDK5R1 / RFU, ZRANB3 / Fold change vs veh, ZRANB3 / RFU, CUL4A / Fold change vs veh, CUL4A / RFU, CCNY / Fold change vs veh, CCNY / RFU, UFL1 / Fold change vs veh, UFL1 / RFU, COG3 / Fold change vs veh, COG3 / RFU, DIAPH2 / Fold change vs veh, DIAPH2 / RFU, SKA2 / Fold change vs veh, SKA2 / RFU, AFF3 / Fold change vs veh, AFF3 / RFU, LMF1 / Fold change vs veh, LMF1 / RFU, IPO11 / Fold change vs veh, IPO11 / RFU, DFFB / Fold change vs veh, DFFB / RFU, FOXP1 / Fold change vs veh, FOXP1 / RFU, CARD8 / Fold change vs veh, CARD8 / RFU, STRN3 / Fold change vs veh, STRN3 / RFU, ADK / Fold change vs veh, ADK / RFU, RASSF2 / Fold change vs veh, RASSF2 / RFU, WIPF1 / Fold change vs veh, WIPF1 / RFU, LARP1B / Fold change vs veh, LARP1B / RFU, RASA1 / Fold change vs veh, RASA1 / RFU, RB1 / Fold change vs veh, RB1 / RFU, PPFIA1 / Fold change vs veh, PPFIA1 / RFU, MAT2A / Fold change vs veh, MAT2A / RFU, CCT5 / Fold change vs veh, CCT5 / RFU, WDR92 / Fold change vs veh, WDR92 / RFU, CUX1 / Fold change vs veh, CUX1 / RFU, TTC7A / Fold change vs veh, TTC7A / RFU, TMEM135 / Fold change vs veh, TMEM135 / RFU, DEPTOR / Fold change vs veh, DEPTOR / RFU, CPM / Fold change vs veh, CPM / RFU, DNAJB6 / Fold change vs veh, DNAJB6 / RFU, CACNA2D3 / Fold change vs veh, CACNA2D3 / RFU, DTX4 / Fold change vs veh, DTX4 / RFU, TFCP2 / Fold change vs veh, TFCP2 / RFU, GMCL1 /// GMCL1P1 / Fold change vs veh, GMCL1 /// GMCL1P1 / RFU, AEBP2 / Fold change vs veh, AEBP2 / RFU, SNHG1 /// SNORD22 /// SNORD25 /// SNORD26 /// SNORD27 /// SNORD28 /// SNORD29 /// SNORD31 / Fold change vs veh, SNHG1 /// SNORD22 /// SNORD25 /// SNORD26 /// SNORD27 /// SNORD28 /// SNORD29 /// SNORD31 / Fold change (Aza/veh), C12orf56 (ProbeSet 11735607_a_at) / Fold change (ACY-1035/veh), C12orf56 (ProbeSet 11735607_a_at) / Fold change (Aza/veh), FGFR1OP (ProbeSet 11751329_s_at) / Fold change (ACY-1035/veh), FGFR1OP (ProbeSet 11751329_s_at) / Fold change (Aza/veh), VPS36 (ProbeSet 11739960_a_at) / Fold change (ACY-1035/veh), VPS36 (ProbeSet 11739960_a_at) / RFU SYPL1 (11715823_x_at) / Fold change /veh SYPL1 (11715823_x_at) / RFU IGFBP7 (11715501_s_at) / Fold change /veh IGFBP7 (11715501_s_at) / RFU REEP3 (11722064_at) / Fold change /veh REEP3 (11722064_at) / RFU IGLL1 (11728026_x_at) / Fold change /veh IGLL1 (11728026_x_at): dose or concentration left out as unconfirmed
Settings: MV-4-11 cells, 48 hours

Nc1ncn([C@@H]2O[C@H](CO)[C@@H](O)[C@H]2O)c(=O)n1 [azacitidine]
Fold change /veh RNFT2 (11725882_a_at): 1.12

Source: article PMC5218480 (PLoS ONE, 2017)
